Data reported in patent US20240041042A1, “1-(PYRIDYL)-5-AZINYLPYRAZOLE DERIVATIVES, AND THEIR USE FOR CONTROL OF UNDESIRED PLANT GROWTH” (Bayer Aktiengesellschaft, priority 2020, published 2024).
Read-outs that look alike come from different tables or passages of the source.

Tests used:
Assay type in all cases: in vivo
Viola tricolor (VIOTR) [1] = assay: Pre-emergence herbicidal action against VIOTR
Summary of the method: (§1)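 Herbicide applied to soil before seedling emergence, at 600 l/ha spray volume with 0.5% additive and rates up to 320 g/ha. Evaluation: visual percentage effect, about 3 weeks later, greenhouse-grown pots compared with untreated ones.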

[2] = test system: Pharbitis purpurea (PHBPU); assay: Post-emergence herbicidal action against PHBPU; details: dosage 320 g/ha
Summary of the method: (§2)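 Post-emergence greenhouse spray, one-leaf stage, 600 l/ha water plus 0.5% additive; WP or EC formulations; application rates 320 g/ha or lower. Visual % damage vs untreated controls at ~3 weeks.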

[3] = test system: Matricaria inodora (MATIN); assay: Post-emergence herbicidal action against MATIN; details: dosage 320 g/ha
Summary of the method: as §2

Setaria viridis (SETVI) [4] = assay: Post-emergence herbicidal action against SETVI
Summary of the method: as §2

Lolium rigidum (LOLRI) [5] = assay: Post-emergence herbicidal action against LOLRI
Summary of the method: as §2

[6] = test system: Digitaria sanguinalis (DIGSA); assay: Pre-emergence herbicidal action against DIGSA
Summary of the method: as §1

Avena fatua (AVEFA) [7] = assay: Pre-emergence herbicidal action against AVEFA; details: 320 g/ha, visual scoring after about 3 weeks vs untreated controls
Summary of the method: as §1

[8] = test system: Verconica persica (VERPE); assay: Pre-emergence herbicidal action against VERPE; details: dosage 320 g/ha
Summary of the method: as §1

[9] = test system: Alopecurus myosuroides (ALOMY); assay: Pre-emergence herbicidal action against ALOMY; details: 320 g/ha; scored visually after about 3 weeks; 100% = plants have died
Summary of the method: as §1

Setaria viridis (SETVI) [10] = assay: Pre-emergence herbicidal action against SETVI
Summary of the method: as §1

[11] = test system: Alopecurus myosuroides (ALOMY); assay: Post-emergence herbicidal action against ALOMY; details: 320 g/ha, visual rating about 3 weeks after treatment vs untreated controls (100% = plants have died, 0% = like control plants)
Summary of the method: as §2

[12] = test system: Echinochloa crus-galli (ECHCG); assay: Pre-emergence herbicidal action against ECHCG
Summary of the method: as §1

[13] = test system: Digitaria sanguinalis (DIGSA); assay: Post-emergence herbicidal action against DIGSA; details: 320 g/ha, visual rating about 3 weeks after treatment
Summary of the method: as §2

Viola tricolor (VIOTR) [14] = assay: Post-emergence herbicidal action against VIOTR
Summary of the method: as §2

[15] = test system: Amaranthus retroflexus (AMARE); assay: Pre-emergence herbicidal action against AMARE; details: 320 g/ha, visual scoring after about 3 weeks vs untreated controls
Summary of the method: as §1

[16] = test system: Verconica persica (VERPE); assay: Post-emergence herbicidal action against VERPE
Summary of the method: as §2

[17] = test system: Amaranthus retroflexus (AMARE); assay: Post-emergence herbicidal action against AMARE; details: 320 g/ha, visual rating about 3 weeks after treatment
Summary of the method: as §2

Glycine max (GLXMA) = details: pre-emergence, 80 g/ha, crop plant compatibility, in comparison to untreated controls
Summary of the method: (§3)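 Scoring: visual, % of untreated control, about 3 weeks after a pre-emergence application to the soil surface. Application used WP or EC formulations diluted in water with 0.5% additive at 600 l/ha; dosage levels are marked by suffixes a, b and c.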

Avena fatua (AVEFA) [18] = assay: Post-emergence herbicidal action against AVEFA; details: visual rating about 3 weeks after treatment
Summary of the method: as §2

Oryza sativa (ORYSA) [19] = details: crop plant compatibility, effect in comparison to untreated controls
Summary of the method: (§4)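 Greenhouse crops in sandy loam sprayed post-emergence at the one-leaf stage, 2–3 weeks after sowing, with WP or EC formulations in water plus 0.5% additive at 600 l/ha. Damage rated visually about 3 weeks later versus untreated controls (0% = like control, 100% = dead); suffixes a–c denote different doses.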

[20] = test system: Matricaria inodora (MATIN); assay: Pre-emergence herbicidal action against MATIN; details: dosage 320 g/ha
Summary of the method: as §1

[21] = test system: Polygonum convolvulus (POLCO); assay: Post-emergence herbicidal action against POLCO; details: dosage 320 g/ha
Summary of the method: as §2

[22] = test system: Echinochloa crus-galli (ECHCG); assay: Post-emergence herbicidal action against ECHCG
Summary of the method: as §2

Lolium rigidum (LOLRI) [23] = assay: Pre-emergence herbicidal action against LOLRI
Summary of the method: as §1

[24] = test system: Polygonum convolvulus (POLCO); assay: Pre-emergence herbicidal action against POLCO; details: dosage 320 g/ha
Summary of the method: as §1

Zea mays (ZEAMX) [25] = details: crop plant compatibility, effect vs untreated controls
Summary of the method: as §4

Oryza sativa (ORYSA) [26] = details: pre-emergence, crop plant compatibility, in comparison to untreated controls
Summary of the method: as §3

Zea mays (ZEAMX) [27] = details: pre-emergence, 80 g/ha, crop plant compatibility, in comparison to untreated controls
Summary of the method: as §3

[28] = test system: Triticum aestivum (TRZAS); details: crop plant compatibility, 80 g/ha, effect vs untreated controls
Summary of the method: as §4

In the case of `COC(=O)[C@@H](C)Oc1nn(-c2nc(F)ccc2F)c(-c2ccc(F)nc2)c1C1CC1` [Example I-298], the “Pre-emergence action against VIOTR in %” value (Viola tricolor (VIOTR) [1]; 320 g/ha, Viola tricolor) is reported as 100%, the “Pre-emergence action against VIOTR in %” value (Viola tricolor (VIOTR) [1]; dosage 80 g/ha) is reported as 100% and the “Post-emergence action against PHBPU in %” value [2] is reported as 90%. The “Post-emergence action against MATIN in %” value [3] was 80%, the “Post-emergence action against SETVI in %” value (Setaria viridis (SETVI) [4]; dosage 80 g/ha) was 90% and the “Post-emergence action against SETVI in %” value (Setaria viridis (SETVI) [4]; dosage 320 g/ha) was 90%. The “Post-emergence action against LOLRI in %” value (Lolium rigidum (LOLRI) [5]; dosage 80 g/ha) was 90%, the “Post-emergence action against LOLRI in %” value (Lolium rigidum (LOLRI) [5]; dosage 320 g/ha) was 90% and the “Pre-emergence action against DIGSA in %” value ([6]; 80 g/ha, visual scoring after about 3 weeks vs untreated controls) was 100%. For the same compound, the “Pre-emergence action against DIGSA in %” value ([6]; dosage 320 g/ha) was 100%, the “Pre-emergence action against AVEFA in %” value (Avena fatua (AVEFA) [7]) was 90% and the “Pre-emergence action against VERPE in %” value [8] was 100%. For the same compound, the “Pre-emergence action against ALOMY” value [9] was 90%, the “Pre-emergence action against SETVI in %” value (Setaria viridis (SETVI) [10]; dosage 80 g/ha) was 100% and the “Pre-emergence action against SETVI in %” value (Setaria viridis (SETVI) [10]; dosage 320 g/ha) was 100%. The “Post-emergence action against ALOMY in %” value [11] was 90%, the “Pre-emergence action against ECHCG in %” value ([12]; dosage 80 g/ha) was 90% and the “Pre-emergence action against ECHCG in %” value ([12]; dosage 320 g/ha) was 100%. For the same compound, the “Post-emergence action against DIGSA in %” value [13] was 80%, the “Post-emergence action against VIOTR in %” value (Viola tricolor (VIOTR) [14]; 80 g/ha) was 80% and the “Post-emergence action against VIOTR in %” value (Viola tricolor (VIOTR) [14]; 320 g/ha) was 90%. The “Pre-emergence action against AMARE in %” value [15] was 100%, the “Post-emergence action against VERPE in %” value ([16]; 320 g/ha, VERPE) was 80% and the “Post-emergence action against VERPE in %” value ([16]; dosage 80 g/ha) was 80%. For the same compound, the “Post-emergence action against AMARE in %” value [17] was 80%, the “Pre-emergence action against GLXMA in %” value (Glycine max (GLXMA)) was 20% and the “Post-emergence action against AVEFA in %” value (Avena fatua (AVEFA) [18]; 80 g/ha) was 80%. For the same compound, the “Post-emergence action against AVEFA in %” value (Avena fatua (AVEFA) [18]; 320 g/ha) was 90%, the “Post-emergence action against ORYSA in %” value (Oryza sativa (ORYSA) [19]; 80 g/ha) was 20% and the “Pre-emergence action against MATIN in %” value [20] was 90%. For the same compound, the “Post-emergence action against POLCO in %” value [21] was 80%, the “Post-emergence action against ECHCG in %” value ([22]; dosage 80 g/ha) was 80% and the “Post-emergence action against ECHCG in %” value ([22]; dosage 320 g/ha) was 90%. For the same compound, the “Pre-emergence action against LOLRI in %” value (Lolium rigidum (LOLRI) [23]; dosage 80 g/ha) was 90% and the “Pre-emergence action against LOLRI in %” value (Lolium rigidum (LOLRI) [23]; dosage 320 g/ha) was 100%.

For `CC(C)C(Oc1nn(-c2ccccn2)c(-c2ccc(F)nc2)c1Br)C(=O)O` (stereo not drawn) [Example I-347], the “Pre-emergence action against VIOTR in %” value (Viola tricolor (VIOTR) [1]; 320 g/ha, Viola tricolor) was 100%, the “Pre-emergence action against VIOTR in %” value (Viola tricolor (VIOTR) [1]; dosage 80 g/ha) was 90% and the “Pre-emergence action against DIGSA in %” value ([6]; dosage 320 g/ha) was 90%. The “Pre-emergence action against ALOMY” value [9] was 80%, the “Pre-emergence action against SETVI in %” value (Setaria viridis (SETVI) [10]; dosage 320 g/ha) was 80% and the “Post-emergence action against ALOMY in %” value [11] was 80%. For the same compound, the “Pre-emergence action against POLCO in %” value [24] was 80%, the “Post-emergence action against DIGSA in %” value [13] was 80% and the “Post-emergence action against VIOTR in %” value (Viola tricolor (VIOTR) [14]; 80 g/ha) was 80%. For the same compound, the “Post-emergence action against VIOTR in %” value (Viola tricolor (VIOTR) [14]; 320 g/ha) was 80%, the “Pre-emergence action against GLXMA in %” value (Glycine max (GLXMA)) was 10% and the “Post-emergence action against ORYSA in %” value (Oryza sativa (ORYSA) [19]; 80 g/ha) was 0%. For the same compound, the “Post-emergence action against ORYSA in %” value (Oryza sativa (ORYSA) [19]; 320 g/ha) was 0%, the “Post-emergence action against ZEAMX in %” value (Zea mays (ZEAMX) [25]; 80 g/ha) was 20% and the “Pre-emergence action against MATIN in %” value [20] was 80%. The “Post-emergence action against POLCO in %” value [21] was 80% and the “Post-emergence action against ECHCG in %” value ([22]; dosage 320 g/ha) was 80%.

For `C[C@H](NC(=O)COc1nn(-c2ccnc(F)c2)c(-c2ccc(F)nc2)c1Br)C(=O)O` [III-25], the “Pre-emergence action against AMARE in %” value [15] was 80%, the “Post-emergence action against AMARE in %” value [17] was 80% and the “Pre-emergence action against ORYSA in %” value (Oryza sativa (ORYSA) [26]; 80 g/ha) was 0%. For the same compound, the “Pre-emergence action against ORYSA in %” value (Oryza sativa (ORYSA) [26]; 320 g/ha) was 0%, the “Pre-emergence action against GLXMA in %” value (Glycine max (GLXMA)) was 0% and the “Pre-emergence action against ZEAMX in %” value (Zea mays (ZEAMX) [27]) was 20%. For the same compound, the “Post-emergence action against ORYSA in %” value (Oryza sativa (ORYSA) [19]; 80 g/ha) was 0%, the “Post-emergence action against ORYSA in %” value (Oryza sativa (ORYSA) [19]; 320 g/ha) was 0% and the “Post-emergence action against TRZAS in %” value [28] was 0%. For the same compound, the “Post-emergence action against ZEAMX in %” value (Zea mays (ZEAMX) [25]; 80 g/ha) was 0% and the “Post-emergence action against ZEAMX in %” value (Zea mays (ZEAMX) [25]; 320 g/ha) was 0%.
